Reference: PMC10620030, “New Organotin (IV) Compounds Derived from Dehydroacetic Acid and Thiosemicarbazides: Synthesis, Rational Design, Cytotoxic Evaluation, and Molecular Docking Simulation” (Bioinorganic Chemistry and Applications, 2023)
Entries after “also recorded” stand apart in the source; their conditions may differ.

Key:
[1] = test system: MCF-7 (human mammary adenocarcinoma) cell line; assay: sulforhodamine B (SRB) cytotoxicity assay on MCF-7; type: cell-based; settings: mean ± SE of three or four assays, incubation 72 h, 48 h exposure
Experimental: (§1) The compounds were screened in vitro against two cancer cell lines, MCF-7 and MDA-MB-231 (human mammary adenocarcinoma), and the normal cell line Cos-7 (African green monkey kidney fibroblast). The MCF-7 and MDA-MB231 cell lines were cultured in RPMI-1640 medium, and Cos-7 was cultured in DMEM (Dulbecco's Modified Eagle's Medium) and supplemented with 10% of fetal bovine serum, 2 mM L-glutamine, 10000 units/ml penicillin G sodium, 10000 μg/ml streptomycin sulfate, 25 μg amphotericin B (Gibco), and 1% of nonessential amino acids (Gibco). The cell lines were maintained at 37°C in a humidified atmosphere with 5% CO2. The viability of the cells used in the experiments exceeded 95%, as determined with trypan blue.
(§2) The human tumor cytotoxicity was assessed using the protein-binding dye sulforhodamine B (SRB) in a microculture assay to measure the cell growth as described by. The human tumors and normal cells were treated with the complexes. The cells were removed from the tissue culture flask by treatment with trypsin and diluted with fresh media from the cell suspension to 100 μl containing 5000–10000 cells per well. The cells were then pipetted into 96 microliter plates (Costar) and incubated at 37°C for 24 h in a 5% CO2 atmosphere. Subsequently, 100 μl of a solution of the corresponding organotin complex at different concentrations was added to each well. […] After the incubation period, the cells were fixed to the plastic substratum by the addition of 50 μl of cold trichloroacetic acid (50% aqueous).
(§3) The plates were incubated at 4°C for one hour, washed with tap water, and air-dried. The addition of […] stained trichloroacetic acid-fixed cells. The free SRB was removed by washing with 1% aqueous acetic acid, the plates were air-dried, and the dyed was solubilized by adding ten mM unbuffered Tris base (100 μl). The plates were placed on a shaker for 10 min, and the absorption was measured at 515 nm using an ELISA plate reader (Bio-Tex Instruments).

[2] = test system: MDA-MB-231 (human mammary adenocarcinoma) cell line; assay: sulforhodamine B (SRB) cytotoxicity assay on MDA-MB-231; type: cell-based; settings: mean ± SE of three or four assays, incubation 72 h, 48 h exposure
Experimental: as §1, §2, §3

[3] = test system: COS-7 (African green monkey kidney fibroblast) normal cell line; assay: sulforhodamine B (SRB) cytotoxicity assay on normal cell line COS-7; type: cell-based; settings: for IC50: normal cell line, SRB assay, mean ± SE of three or four assays; for Non-Cytotoxic concentration on normal cell line COS-7: nondetectable effect on cell proliferation
Experimental: as §1
The human tumor cytotoxicity was assessed using the protein-binding dye sulforhodamine B (SRB) in a microculture assay to measure the cell growth as described by. The human tumors and normal cells were treated with the complexes. The cells were removed from the tissue culture flask by treatment with trypsin and diluted with fresh media from the cell suspension to 100 μl containing 5000–10000 cells per well. The cells were then pipetted into 96 microliter plates (Costar) and incubated at 37°C for 24 h in a 5% CO2 atmosphere. Subsequently, 100 μl of a solution of the corresponding organotin complex at different concentrations was added to each well. The cultures were exposed to the compounds for 48 h. After the incubation period, the cells were fixed to the plastic substratum by the addition of 50 μl of cold trichloroacetic acid (50% aqueous).
as §3

[4] = stability in DMSO-d6 by 1H NMR; type: physicochemical; settings: DMSO-d6 solution, up to 72 h
Experimental: The stability of the complexes in biological media was tested to evaluate their cytotoxicity. The compounds were dissolved in a DMSO-Tris-HCl buffer (3 : 7 v/v) over a 72 h period, and the UV-Vis spectra were recorded at 0 and 72 h. ^1H NMR spectra in DMSO-d6 of complexes 1a, 1d, 2a, 2d, 3a, and 3d were also acquired at 0, 24, 56, and 72 h.

[5] = test system: MDA-MB-231 cell line; assay: morphological changes, Giemsa stain light microscopy, MDA-MB-231; type: cell-based, human; settings: 48 h treatment
Experimental: (§4) To evaluate the morphological alterations induced by organotin(IV) complexes, MCF-7 and MDA-MB231 cell lines were cultured on a tissue culture flask with or without different treatments for 48 h. After incubation, cells were washed two times with PBS, fixed with methanol 100%, and stained with Wright-Giemsa (Sigma-Aldrich, WG32-1L). The culture flasks were examined under an Olympus IX71 Inverted Fluorescence Phase Contrast Microscope. The images were recorded with a Nikon Coolpix 4300 digital camera using the 20x objectives and analyzed by ImageJ software.

[6] = test system: MCF-7 cell line; assay: morphological changes, Giemsa stain light microscopy, MCF-7; type: cell-based, human; settings: 48 h treatment
Experimental: as §4

SMILES	IC50 [1]	IC50 [2]	IC50 [3]	Non-Cytotoxic concentration on normal cell line COS-7 [3]	stability by 1H NMR [4]	morphological alterations MDA-MB-231 [5]	morphological alterations MCF-7 [6]
N.N.[Cl][Pt][Cl] [Cisplatin, reference compound]	5300 ± 500 nM	27700 nM	7170 ± 600 nM	–	–	–	–
CCC[CH2][Sn]1([CH2]CCC)[O]c2cc(C)oc(=O)c2C(C)=NN=C(N)[S]1 [Compound 1a, 4-Amino-2,2-dibutyl-7,10-dimethylpyrane[3,4-h]-1,3,5,6,2-oxathiadiazastannonin-8-one]	380 ± 30 nM	120 ± 10 nM	490 ± 30 nM	0.02 µM	good stability	Cell density decreased	–
CCCCCCC[CH2][Sn]1([CH2]CCCCCCC)[O]c2cc(C)oc(=O)c2C(C)=NN=C(N)[S]1 [Compound 1b, 4-Amino-2,2-dioctyl-7,10-dimethylpyrane-[3,4-h]-1,3,5,6,2-oxathiadiazastannonin-8-one]	8650 ± 700 nM	11000 ± 1500 nM	12200 ± 300 nM	0.2 µM	–	–	–
CC1=NN=C(N)[S][Sn]([c]2ccccc2)([c]2ccccc2)[O]c2cc(C)oc(=O)c21 [Compound 1c, 4-Amino-2,2-diphenyl-7,10-dimethylpyrane[3,4-h]-1,3,5,6,2-oxathiadiazastannonin-8-one]	611 ± 20 nM	170 ± 10 nM	680 ± 50 nM	0.02 µM	–	Cell density decreased	–
CC1=NN=C(N)[S][Sn]([CH]2CCCCC2)([CH]2CCCCC2)[O]c2cc(C)oc(=O)c21 [Compound 1d, 4-Amino-2,2-dicyclohexyl-7,10-dimethylpyrane[3,4-h]-1,3,5,6,2-oxathiadiazastannonin-8-one]	203 ± 8 nM	119 ± 3 nM	180 ± 6 nM	0.01 µM	good stability	–	–
CC1=NN=C(N)[S][Sn]([CH2][Si](C)(C)C)([CH2][Si](C)(C)C)[O]c2cc(C)oc(=O)c21 [Compound 1e, 4-Amino-2,2-bis(trimethylsilyl)methyl-7,10-dimethylpyrane[3,4-h]-1,3,5,6,2-oxathiadiazastannonin-8-one]	180 ± 5 nM	42 ± 8 nM	140 ± 10 nM	0.01 µM	–	–	–
CCC[CH2][Sn]1([CH2]CCC)[O]c2cc(C)oc(=O)c2C(C)=NN=C(CN)[S]1 [Compound 2a, 2,2-Dibutyl-7,10-dimethyl-4-(aminomethyl) Pyrane[3,4-h]-1,3,5,6,2-oxathiadiazastannonin-8-one]	210 ± 40 nM	310 ± 20 nM	620 ± 60 nM	0.01 µM	good stability	–	–
CCCCCCC[CH2][Sn]1([CH2]CCCCCCC)[O]c2cc(C)oc(=O)c2C(C)=NN=C(NC)[S]1 [Compound 2b, 2,2-Dioctyl-7,10-dimethyl-4-(aminomethyl) Pyrane[3,4-h]-1,3,5,6,2-oxathiadiazastannonin-8-one]	1390 ± 30 nM	3280 ± 80 nM	11600 ± 800 nM	0.2 µM	–	–	Cell density decreased
CC1=NN=C(CN)[S][Sn]([c]2ccccc2)([c]2ccccc2)[O]c2cc(C)oc(=O)c21 [Compound 2c, 2,2-Diphenyl-7,10-dimethyl-4-(aminomethyl) Pyrane[3,4-h]-1,3,5,6,2-oxathiadiazastannonin-8-one]	1080 ± 10 nM	1020 ± 30 nM	1150 ± 100 nM	0.02 µM	–	–	–
CC1=NN=C(CN)[S][Sn]([CH]2CCCCC2)([CH]2CCCCC2)[O]c2cc(C)oc(=O)c21 [Compound 2d, 2,2-Dicyclohexyl-7,10-dimethyl-4-(aminomethyl) Pyrane[3,4-h]-1,3,5,6,2-oxathiadiazastannonin-8-one]	200 ± 2 nM	87 ± 200 nM	280 ± 10 nM	0.01 µM	good stability	–	–
CC1=NN=C(CN)[S][Sn]([CH2][Si](C)(C)C)([CH2][Si](C)(C)C)[O]c2cc(C)oc(=O)c21 [Compound 2e, 2,2-Bis(trimethylsilyl)methyl-7,10-dimethyl-4-(aminomethyl) Pyrane[3,4-h]-1,3,5,6,2-oxathiadiazastannonin-8-one]	150 ± 20 nM	120 ± 8 nM	290 ± 30 nM	0.01 µM	–	–	cytoplasm vacuolization
CCC[CH2][Sn]1([CH2]CCC)[O]c2cc(C)oc(=O)c2C(C)=NN=C(Nc2ccccc2)[S]1 [Compound 3a, 2,2-Dibutyl-7,10-dimethyl-4-(aminophenyl) Pyrane[3,4-h]-1,3,5,6,2-oxathiadiazastannonin-8-one]	210 ± 9 nM	100 ± 10 nM	340 ± 10 nM	0.02 µM	good stability	–	–
CCCCCCC[CH2][Sn]1([CH2]CCCCCCC)[O]c2cc(C)oc(=O)c2C(C)=NN=C(Nc2ccccc2)[S]1 [Compound 3b, 2,2-Dioctyl-7,10-dimethyl-4-(aminophenyl) Pyrane[3,4-h]-1,3,5,6,2-oxathiadiazastannonin-8-one]	730 ± 100 nM	540 ± 80 nM	1600 ± 200 nM	0.01 µM	–	–	–
CC1=NN=C(Nc2ccccc2)[S][Sn]([c]2ccccc2)([c]2ccccc2)[O]c2cc(C)oc(=O)c21 [Compound 3c, 2,2-Diphenyl-7,10-dimethyl-4-(aminophenyl) Pyrane[3,4-h]-1,3,5,6,2-oxathiadiazastannonin-8-one]	160 ± 10 nM	490 ± 2 nM	250 ± 6 nM	0.01 µM	–	–	–
CC1=NN=C(Nc2ccccc2)[S][Sn]([CH]2CCCCC2)([CH]2CCCCC2)[O]c2cc(C)oc(=O)c21 [Compound 3d, 2,2-Dicyclohexyl-7,10-dimethyl-4-(aminophenyl) Pyrane[3,4-h]-1,3,5,6,2-oxathiadiazastannonin-8-one]	160 ± 6 nM	70 ± 5 nM	160 ± 20 nM	0.01 µM	–	chromatin condensation	–
CC1=NN=C(Nc2ccccc2)[S][Sn]([CH2][Si](C)(C)C)([CH2][Si](C)(C)C)[O]c2cc(C)oc(=O)c21 [Compound 3e, 2,2-Bis(trimethylsilyl)methyl-7,10-dimethyl-4-(aminophenyl) Pyrane[3,4-h]-1,3,5,6,2-oxathiadiazastannonin-8-one]	40 ± 2 nM	140 ± 3 nM	250 ± 10 nM	0.01 µM	–	cytoplasm vacuolization	Cell density decreased; also recorded: presence of nonadherent cells; also recorded: chromatin condensation and pyknotic nuclei
